Assay results taken from patent publication US11857601B2, “Pharmaceutical composition for cancer treatment comprising fusion protein including IL-2 protein and CD80 protein and anticancer drug” (GI INNOVATION, INC., priority 2020, dated 2024).

Columns and labels:
[1] = tested on: MDA-MB-231 cells; test: Cancer cell killing, GI-101 and Ribociclib, MDA-MB-231 with PBMCs; assay type: cell-based, human; details: GI-101 100 nM, Ribociclib 913 nM, 24 hours, compared with co-culturing only cancer cells and PBMCs
Text: This experiment was to evaluate the effect of killing cancer cells by treating MDA-MB-231 cells (human breast cancer cells) with the test substance GI-101 alone or in combination with Ribociclib substance in an in vitro environment.
MDA-MB-231 cells were purchased from the Korea cell line bank and cultured in RPMI1640 medium (Gibco) containing 10% FBS (Gibco) and 1% antibiotic/antifungal agent (Gibco). For use in cancer cell killing test, the cells were harvested using trypsin (Gibco), and then suspended in RPMI1640 medium, and then dead cells and debris were removed using Ficoll (GE Healthcare Life Sciences) solution. The cells suspended in RPMI1640 medium were carefully layered on ficoll solution. […]
In order to identify the effect of killing the cells, a CytoTox Green reagent ([…]™ CytoTox Green, Satorius) that binds to the DNA of cells to be killed was prepared in 1 μl per 1 mL of RPMI1640 medium containing 5% human AB serum (Sigma). The prepared medium was used for dilution of the test substance, and the effect of killing the cells could be quantitatively identified by staining the cells to be killed when the test substance was co-cultured with cancer cell lines and PBMCs. […]

[2] = tested on: CT26 cells; test: mGI-101 and Guadecitabine in CT26 allotransplanted tumor model; assay type: in vivo, BALB/c mice; details: for tumor size level vs control: day 10, alone or + Guadecitabine
Text: CT26 cells were purchased from ATCC (USA) and cultured in RPMI1640 medium (Gibco) containing 10% FBS (Gibco) and 1% antibiotic/antifungal agent (Gibco). The cultured cells were harvested using trypsin (Gibco) and then suspended in PBS. In order to establish an allotransplanted tumor model, 5×10^5 of CT26 cells were subcutaneously injected into the right flank of BALB/c female mice (8-week-old) (FIG. 97).
The tumor grafts of the mice were identified about day 7 after cell inoculation, and the mice were randomly assigned based on tumor volume (50-120 mm^3), each group including 13 mice.
Clinical symptoms such as a disease and a behavioral change were observed once a day during the test period, and deceased animals were identified, and the mice were sacrificed when the tumor size reached a size of 4,000 mm^3. The size of the CT26 solid cancer was measured using a tumor 3D scanner (TM900, Peria, Belgium). […] The anti-tumor efficacy was evaluated as compared with the vehicle control. All statistical calculations were performed using Prism 8.0 (Graph Pad Software Inc, USA). The comparison of tumor volume measurements was made through two-way analysis of variance followed by Tukey's multiple comparison test. A p value of less than 0.05 was considered significant.

| Substance | effect of killing cancer cells [1] | tumor size level vs control ([2]; mGI-101 0.6 mg/kg) | tumor size level vs control ([2]; mGI-101 3 mg/kg) | tumor growth inhibitory effect (individual tumor sizes) ([2]; mouse, in vivo) |
| --- | --- | --- | --- | --- |
| GI101: fusion protein: human CD80 fragment, Ig hinge, Fc domain, linker, IL-2 variant (2M) (R38A, F42A); SEQ ID NO: 9 | co-culturing only cancer cells and PBMCs, the effect of killing cancer cells was identified, and tended to be higher than that of treatment with GI-101 alone |  |  |  |
| mGI101: fusion protein: mouse CD80, Ig hinge, Fc domain, linker, IL-2 variant (2M) (R38A, F42A); SEQ ID NO: 15 |  | tended to be lower | statistically significantly lower | exhibited the tumor growth inhibitory effect |
